Experimental data taken from US20250304542A1, “Fused Heterobicyclic Antiviral Agents” (Enanta Pharmaceuticals, Inc., priority 2024, published 2025).
Like-named read-outs stand apart in the source and are kept apart here.

What was measured:
NTCP = molecular target: T1, NTCP (Homo sapiens, UniProt Q14973); test: HepG2-NTCP preS1 Binding Competition Assay; settings: HepG2-NTCP cells pre-treated 2 hours, FITC-labeled myristoylated preS1 peptide co-incubated 30 minutes, cell-surface fluorescence; read-out: Cellular EC50
T1 construct: expressed in transfected cells; host or cells: HepG2-NTCP (A3 clone, kept under puromycin)
T1 sequence (Q14973 1-349): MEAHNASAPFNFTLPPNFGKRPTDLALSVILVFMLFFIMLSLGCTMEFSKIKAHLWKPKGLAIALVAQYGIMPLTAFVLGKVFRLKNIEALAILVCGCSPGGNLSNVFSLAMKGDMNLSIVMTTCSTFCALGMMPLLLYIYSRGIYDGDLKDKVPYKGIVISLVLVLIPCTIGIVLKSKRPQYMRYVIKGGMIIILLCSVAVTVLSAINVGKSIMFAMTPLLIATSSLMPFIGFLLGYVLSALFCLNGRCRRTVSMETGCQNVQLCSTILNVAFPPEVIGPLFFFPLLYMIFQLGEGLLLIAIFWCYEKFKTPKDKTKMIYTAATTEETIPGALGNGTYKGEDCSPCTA
Protocol: Myristoylated preS1 peptide (2-48 aa) conjugated to a C-terminal FITC tag was synthesized to evaluate preS1 binding to NTCP-expressing cells. HepG2-NTCP cells seeded in 384-wells were pre-treated with compounds for 2 hours prior to the addition of FITC-labeled preS1 peptide. After co-incubation for 30 minutes, unbound FITC-preS1 peptide was washed twice with PBS, and the fluorescence of preS1-FITC bound to cell surface was detected by Envision plate reader. EC50 ranges are as follows: A<0.1 μM; B 0.1-1 μM; C>1 μM. A dash (-) indicates the compound was not tested.

HBV = HBV Infection in HepG2-NTCP Cells (HBeAg AlphaLISA); format: cell-based; settings: Hepatitis B virus, 192 h
Protocol: HepG2-NTCP A3 cells were maintained in DMEM media supplemented with GlutaMAX™, 10% fetal bovine serum, 1% penicillin/streptomycin, and 5 μg/mL puromycin at 37° C. in a humidified atmosphere with 5% CO2 in a collagen-coated tissue culture flask.
HepG2-NTCP cells were seeded in 384 well plate containing 16,000 cells/well two days prior to the infection. On the day of infection, compounds were 3-fold serially diluted in DMSO and pre-incubated with HepG2-NTCP cells for two hours before purified HBV addition. HBV infection was carried out at 2000 GE/cell with 4% PEG, and the final concentration of DMSO is 0.5%. On day one post infection, HBV-containing media was aspirated, cells were washed once with PBS and then maintained in 2.5% DMSO containing media for the remainder of the assay.
Supernatants from infected HepG2-NTCP cells were collected at day 8 post infection, and the amount of viral antigen HBeAg was measured by HBeAg AlphaLISA detection kit (PerkinElmer) following the manufacturer's recommended protocol. Irrespective of readout, compound concentrations that reduce viral product accumulation in supernatants by 50% relative to DMSO controls (EC50) are reported. EC50 ranges are as follows: A<0.1 μM; B 0.1-1 μM; C>1 μM. A dash (-) indicates the compound was not tested.

Row | Structure (SMILES) | EC50 (NTCP) [nM] | EC50 (HBV; read-out: Cellular EC50 (μM)) [µM] | EC50 (HBV; HBV-infected HepG2-NTCP cells, HBeAg in supernatants at day 8 post infection, 50% reduction relative to DMSO controls, read-out: Cellular EC50) [µM]
1 | CN1[C@H](C2CCCCC2)CN(c2ccccc2)c2cc(Cl)c(C#CC(C)(C)C(=O)O)cc2S1(=O)=O [Example 1, (R)-4-(7-chloro-3-cyclohexyl-2-methyl-1,1-dioxido-5-phenyl-2,3,4,5-tetrahydrobenzo[f][1,2,5]thiadiazepin-8-yl)-2,2-dimethylbut-3-ynoic acid] | < 100 | < 0.1 | 
2 | CN1[C@H](C2CCCCC2)CN(c2ccccc2)c2cc(Cl)c(CCC(C)(C)C(=O)O)cc2S1(=O)=O [Example 2, (R)-4-(7-chloro-3-cyclohexyl-2-methyl-1,1-dioxido-5-phenyl-2,3,4,5-tetrahydrobenzo[f][1,2,5]thiadiazepin-8-yl)-2,2-dimethylbutanoic acid] | < 100 | < 0.1 | 
3 | CN1[C@H](C2CCCCC2)CN(C2CCCCC2)c2ccc(CCC(C)(C)C(=O)O)cc2S1(=O)=O [Example 3, (R)-4-(3,5-dicyclohexyl-2-methyl-1,1-dioxido-2,3,4,5-tetrahydrobenzo[f][1,2,5]thiadiazepin-8-yl)-2,2-dimethylbutanoic acid] | < 100 | 0.1 to 1 | 
4 | CN1[C@H](C2CCCCC2)CN(C2CCCCC2)c2cc(Cl)c(CCC(C)(C)C(=O)O)cc2S1(=O)=O [Example 4, (R)-4-(7-chloro-3,5-dicyclohexyl-2-methyl-1,1-dioxido-2,3,4,5-tetrahydrobenzo[f][1,2,5]thiadiazepin-8-yl)-2,2-dimethylbutanoic acid] | < 100 | 0.1 to 1 | 
5 | CN1[C@H](C2CCCCC2)CN(c2ccccc2)c2cc(Cl)c(C#CC3(C(=O)O)CC3)cc2S1(=O)=O [Example 5] | 100 to 1000 | < 0.1 | 
6 | CN1[C@H](C2CCCCC2)CN(c2ccccc2)c2cc(Cl)c(CCC3(C(=O)O)CC3)cc2S1(=O)=O [Example 6] | 100 to 1000 | < 0.1 | 
7 | CN1[C@H](C2CCCCC2)CN(c2ccccc2)c2cc(F)c(CCCC(=O)O)cc2S1(=O)=O [Example 7] | 100 to 1000 | 0.1 to 1 | 
8 | CN1[C@H](C2CCCCC2)CN(C2CCCCC2)c2cc(Cl)c(/C=C/C(C)(C)C(=O)O)cc2S1(=O)=O [Example 10, (R,E)-4-(7-chloro-3,5-dicyclohexyl-2-methyl-1,1-dioxido-2,3,4,5-tetrahydrobenzo[f][1,2,5]thiadiazepin-8-yl)-2,2-dimethylbut-3-enoic acid] | 100 to 1000 |  | 
9 | CC(C)Oc1cccc(COc2cc3c(cc2C#CC2(C(=O)O)CC2)S(=O)(=O)N(C)[C@H](C2CCCCC2)CN3c2ccccc2)c1 [Example 11, (R)-1-((3-cyclohexyl-7-((3-isopropoxybenzyl)oxy)-2-methyl-1,1-dioxido-5-phenyl-2,3,4,5-tetrahydrobenzo[f][1,2,5]thiadiazepin-8-yl)ethynyl)cyclopropane-1-carboxylic acid] | 100 to 1000 | < 0.1 | 
10 | CN1[C@H](C2CCCCC2)CN(c2ccccc2)c2cc(Cl)c(CC[C@H](NC(=O)OC(C)(C)C)C(=O)O)cc2S1(=O)=O [Example 12, (S)-2-((tert-butoxycarbonyl)amino)-4-((R)-7-chloro-3-cyclohexyl-2-methyl-1,1-dioxido-5-phenyl-2,3,4,5-tetrahydrobenzo[f][1,2,5]thiadiazepin-8-yl)butanoic acid] | < 100 | < 0.1 | 
11 | CN1[C@H](C2CCCCC2)CN(c2ccccc2)c2cc(Cl)c(CC[C@@H](NC(=O)OC(C)(C)C)C(=O)O)cc2S1(=O)=O [Example 13] | < 100 | < 0.1 | 
12 | CC(C)COC(=O)N[C@@H](CCc1cc2c(cc1Cl)N(c1ccccc1)C[C@@H](C1CCCCC1)N(C)S2(=O)=O)C(=O)O [Example 14, (S)-4-((R)-7-chloro-3-cyclohexyl-2-methyl-1,1-dioxido-5-phenyl-2,3,4,5-tetrahydrobenzo[f][1,2,5]thiadiazepin-8-yl)-2-((isobutoxycarbonyl)amino)butanoic acid] | 100 to 1000 | < 0.1 | 
13 | CCCCCOC(=O)N[C@H](CCc1cc2c(cc1Cl)N(c1ccccc1)C[C@@H](C1CCCCC1)N(C)S2(=O)=O)C(=O)O [Example 17] | 100 to 1000 |  | 
14 | CCOC(=O)N[C@@H](CCc1cc2c(cc1Cl)N(c1ccccc1)C[C@@H](C1CCCCC1)N(C)S2(=O)=O)C(=O)O [Example 18] | 100 to 1000 |  | 
15 | CCOC(=O)N[C@H](CCc1cc2c(cc1Cl)N(c1ccccc1)C[C@@H](C1CCCCC1)N(C)S2(=O)=O)C(=O)O [Example 19] | 100 to 1000 |  | 
16 | CCCCCCCCCOC(=O)N[C@@H](CCc1cc2c(cc1Cl)N(c1ccccc1)C[C@@H](C1CCCCC1)N(C)S2(=O)=O)C(=O)O [Example 20] | 100 to 1000 |  | 
17 | CCCCCCCCCOC(=O)N[C@H](CCc1cc2c(cc1Cl)N(c1ccccc1)C[C@@H](C1CCCCC1)N(C)S2(=O)=O)C(=O)O [Example 21] | 100 to 1000 |  | 
18 | CN1[C@H](C2CCCCC2)CN(c2ccccc2)c2cc(Cl)c(CC[C@@H](NC(=O)OCc3ccccc3)C(=O)O)cc2S1(=O)=O [Example 23] | 100 to 1000 |  | 
19 | CN1[C@H](C2CCCCC2)CN(c2ccccc2)c2cc(Cl)c(CC[C@@H](NC(=O)N3CCCCC3)C(=O)O)cc2S1(=O)=O [Example 24, (R)-4-((R)-7-chloro-3-cyclohexyl-2-methyl-1,1-dioxido-5-phenyl-2,3,4,5-tetrahydrobenzo[f][1,2,5]thiadiazepin-8-yl)-2-(piperidine-1-carboxamido)butanoic acid] | 100 to 1000 |  | 
20 | CCN(C)C(=O)N[C@H](CCc1cc2c(cc1Cl)N(c1ccccc1)C[C@@H](C1CCCCC1)N(C)S2(=O)=O)C(=O)O [Example 25, (R)-4-((R)-7-chloro-3-cyclohexyl-2-methyl-1,1-dioxido-5-phenyl-2,3,4,5-tetrahydrobenzo[f][1,2,5]thiadiazepin-8-yl)-2-(3-ethyl-3-methylureido)butanoic acid] | 100 to 1000 |  | 
21 | CCN(C)C(=O)N[C@@H](CCc1cc2c(cc1Cl)N(c1ccccc1)C[C@@H](C1CCCCC1)N(C)S2(=O)=O)C(=O)O [Example 26] | 100 to 1000 |  | 
22 | CN1[C@H](C2CCCCC2)CN(c2ccccc2)c2cc(Cl)c(CC[C@H](NC(=O)N3CCCCC3)C(=O)O)cc2S1(=O)=O [Example 27] | 100 to 1000 |  | 
23 | CC(C)CS(=O)(=O)N[C@@H](CCc1cc2c(cc1Cl)N(c1ccccc1)C[C@@H](C1CCCCC1)N(C)S2(=O)=O)C(=O)O [Example 28, (S)-4-((R)-7-chloro-3-cyclohexyl-2-methyl-1,1-dioxido-5-phenyl-2,3,4,5-tetrahydrobenzo[f][1,2,5]thiadiazepin-8-yl)-2-((2-methylpropyl)sulfonamido)butanoic acid] | 100 to 1000 |  | 
24 | CN1[C@H](C2CCCCC2)CN(c2ccccc2)c2cc(Cl)c(CC[C@H](NC(=O)C(=O)N3CCCC3)C(=O)O)cc2S1(=O)=O [Example 35] | 100 to 1000 |  | 
25 | CCCCCC(=O)N[C@@H](CCc1cc2c(cc1Cl)N(c1ccccc1)C[C@@H](C1CCCCC1)N(C)S2(=O)=O)C(=O)O [Example 36, (S)-4-((R)-7-chloro-3-cyclohexyl-2-methyl-1,1-dioxido-5-phenyl-2,3,4,5-tetrahydrobenzo[f][1,2,5]thiadiazepin-8-yl)-2-hexanamidobutanoic acid] | 100 to 1000 |  | 
26 | CN1[C@H](C2CCCCC2)CN(c2ccccc2)c2cc(Cl)c(OCC(C)(C)C(=O)O)cc2S1(=O)=O [Example 38, (R)-3-((7-chloro-3-cyclohexyl-2-methyl-1,1-dioxido-5-phenyl-2,3,4,5-tetrahydrobenzo[f][1,2,5]thiadiazepin-8-yl)oxy)-2,2-dimethylpropanoic acid] |  |  | 0.1 to 1
27 | CNc1cc2c(cc1C(=O)NC1(C(=O)O)CC1)S(=O)(=O)N(C)[C@H](C1CCCCC1)CN2c1ccccc1 [Example 42] | > 1000 |  | 
28 | CNc1cc2c(cc1C(=O)NC(C)(C)C(=O)O)S(=O)(=O)N(C)[C@H](C1CCCCC1)CN2c1ccccc1 [Example 43] | 100 to 1000 |  | 
29 | CNc1cc2c(cc1C(=O)N[C@H](C(=O)O)C1CCOCC1)S(=O)(=O)N(C)[C@H](C1CCCCC1)CN2c1ccccc1 [Example 44] | > 1000 |  | 
30 | CNc1cc2c(cc1C(=O)N[C@@H](C(=O)O)c1cccc(Cl)c1)S(=O)(=O)N(C)[C@H](C1CCCCC1)CN2c1ccccc1 [Example 46] | 100 to 1000 |  | 
